In patent US9458110B2, “Phenylpyrazole derivatives as potent ROCK1 and ROCK2 inhibitors” (BRISTOL-MYERS SQUIBB COMPANY, priority 2013, dated 2016):
Where two headings read alike, the source gives them in different places.

Legend:
ROCK1 = ROCK1 (Homo sapiens (Human), UniProt Q13464); assay: ROCK assay (Caliper LABCHIP peptide phosphorylation), ROCK1; assay type: biochemical; settings: 5 μM ATP, 1.5 μM peptide substrate;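 note: Read-out is separation of phosphorylated from unphosphorylated peptide, with kinase activity inhibition computed at every concentration of a dose-response series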
Sequence of ROCK1 (Q13464 whole entry, species assumed): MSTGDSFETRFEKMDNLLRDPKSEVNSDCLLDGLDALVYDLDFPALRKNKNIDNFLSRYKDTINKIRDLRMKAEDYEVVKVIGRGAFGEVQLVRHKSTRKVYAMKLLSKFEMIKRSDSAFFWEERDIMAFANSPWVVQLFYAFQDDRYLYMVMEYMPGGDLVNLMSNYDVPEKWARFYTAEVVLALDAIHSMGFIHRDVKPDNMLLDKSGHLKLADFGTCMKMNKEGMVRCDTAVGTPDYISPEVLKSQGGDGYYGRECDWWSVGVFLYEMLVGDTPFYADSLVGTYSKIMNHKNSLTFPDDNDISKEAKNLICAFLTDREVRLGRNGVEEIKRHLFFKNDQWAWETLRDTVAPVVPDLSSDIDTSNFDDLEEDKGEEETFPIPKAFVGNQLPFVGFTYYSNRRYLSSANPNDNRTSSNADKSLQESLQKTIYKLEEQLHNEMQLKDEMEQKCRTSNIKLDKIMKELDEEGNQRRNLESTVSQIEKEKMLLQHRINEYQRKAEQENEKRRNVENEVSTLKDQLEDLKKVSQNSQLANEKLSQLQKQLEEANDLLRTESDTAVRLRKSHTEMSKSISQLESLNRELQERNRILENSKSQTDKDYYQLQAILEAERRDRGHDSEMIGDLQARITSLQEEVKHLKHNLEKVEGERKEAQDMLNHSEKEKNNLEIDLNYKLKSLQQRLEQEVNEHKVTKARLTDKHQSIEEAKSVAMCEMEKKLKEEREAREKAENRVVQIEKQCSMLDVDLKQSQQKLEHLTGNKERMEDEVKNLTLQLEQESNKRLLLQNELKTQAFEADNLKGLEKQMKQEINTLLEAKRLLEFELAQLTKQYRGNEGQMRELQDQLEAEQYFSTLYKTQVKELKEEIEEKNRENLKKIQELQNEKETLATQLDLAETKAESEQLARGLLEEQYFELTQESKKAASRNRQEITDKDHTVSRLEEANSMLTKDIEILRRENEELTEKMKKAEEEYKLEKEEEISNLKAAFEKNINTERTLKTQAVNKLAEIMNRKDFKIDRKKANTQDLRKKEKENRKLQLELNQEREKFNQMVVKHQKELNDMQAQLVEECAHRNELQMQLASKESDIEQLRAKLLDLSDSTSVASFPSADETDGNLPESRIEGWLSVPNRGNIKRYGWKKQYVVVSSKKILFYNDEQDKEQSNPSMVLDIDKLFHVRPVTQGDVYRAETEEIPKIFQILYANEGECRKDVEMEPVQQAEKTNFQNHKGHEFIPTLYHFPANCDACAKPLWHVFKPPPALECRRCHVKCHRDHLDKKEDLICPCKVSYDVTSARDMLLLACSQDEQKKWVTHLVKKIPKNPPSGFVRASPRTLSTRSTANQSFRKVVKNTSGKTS

ROCK2 = ROCK2 (Homo sapiens (Human), UniProt O75116); assay: ROCK assay (Caliper LABCHIP peptide phosphorylation), ROCK2; assay type: biochemical; settings: 5 μM ATP, 1.5 μM peptide substrate;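 note: reaction stopped with EDTA, then phosphorylated and unphosphorylated peptide resolved by microfluidic electrophoresis, kinase inhibition computed at each compound concentration in dose-response series, DMSO under 2%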
Sequence of ROCK2 (O75116 whole entry, species assumed): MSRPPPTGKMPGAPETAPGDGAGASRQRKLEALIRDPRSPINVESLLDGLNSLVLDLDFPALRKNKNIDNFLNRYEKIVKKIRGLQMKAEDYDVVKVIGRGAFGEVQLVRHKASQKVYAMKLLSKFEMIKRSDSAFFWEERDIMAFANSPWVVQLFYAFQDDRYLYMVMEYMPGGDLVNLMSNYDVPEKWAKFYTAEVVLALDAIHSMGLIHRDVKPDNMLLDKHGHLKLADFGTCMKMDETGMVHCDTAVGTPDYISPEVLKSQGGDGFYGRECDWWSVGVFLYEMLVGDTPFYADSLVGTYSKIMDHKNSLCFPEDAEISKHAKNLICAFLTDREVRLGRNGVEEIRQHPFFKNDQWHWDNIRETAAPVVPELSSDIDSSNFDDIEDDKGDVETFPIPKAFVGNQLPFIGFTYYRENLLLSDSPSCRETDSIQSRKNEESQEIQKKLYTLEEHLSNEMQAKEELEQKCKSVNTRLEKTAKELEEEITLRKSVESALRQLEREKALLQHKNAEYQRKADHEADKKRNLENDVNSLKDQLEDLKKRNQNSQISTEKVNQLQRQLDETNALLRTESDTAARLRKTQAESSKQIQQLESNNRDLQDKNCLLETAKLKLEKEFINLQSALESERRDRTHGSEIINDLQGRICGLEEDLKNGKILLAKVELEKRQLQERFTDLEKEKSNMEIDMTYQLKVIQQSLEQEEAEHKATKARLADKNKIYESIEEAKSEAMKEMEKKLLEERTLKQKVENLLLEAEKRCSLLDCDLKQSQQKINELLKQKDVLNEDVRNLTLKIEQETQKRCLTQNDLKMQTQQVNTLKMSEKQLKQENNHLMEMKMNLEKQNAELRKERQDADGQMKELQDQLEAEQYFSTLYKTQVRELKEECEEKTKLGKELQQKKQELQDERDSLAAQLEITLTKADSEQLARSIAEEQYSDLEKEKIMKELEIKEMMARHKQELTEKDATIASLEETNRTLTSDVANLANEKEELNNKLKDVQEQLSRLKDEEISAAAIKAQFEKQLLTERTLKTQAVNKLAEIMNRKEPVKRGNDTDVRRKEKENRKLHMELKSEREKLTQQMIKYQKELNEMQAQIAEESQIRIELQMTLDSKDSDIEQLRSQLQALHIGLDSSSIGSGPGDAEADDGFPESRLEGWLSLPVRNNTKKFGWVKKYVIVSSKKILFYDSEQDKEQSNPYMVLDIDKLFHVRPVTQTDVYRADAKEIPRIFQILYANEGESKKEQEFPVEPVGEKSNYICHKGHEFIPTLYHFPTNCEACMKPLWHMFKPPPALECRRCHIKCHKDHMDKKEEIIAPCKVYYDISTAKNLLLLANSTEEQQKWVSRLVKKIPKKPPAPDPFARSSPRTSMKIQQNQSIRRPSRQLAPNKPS

[1] = system: rat models of hypertension; settings: cited from earlier work
neointimal formation = settings: rats, balloon injury model; cited from earlier work
[2] = system: congestive heart failure in Dahl salt-sensitive rats; settings: cited from earlier work
[3] = system: IL-1 beta-induced coronary stenosis; settings: long term treatment; cited from earlier work

Molecule | IC50 (ROCK1) | IC50 (ROCK2) | also measured
CC(O)c1cc(C(=O)N[C@H](C)c2c(F)cccc2F)ccc1-c1cn[nH]c1 (stereo partly drawn) [Example 292, N-[(1R)-1-(2,6-difluorophenyl)ethyl]-3-(1-hydroxyethyl)-4-(1H-pyrazol-4-yl)benzamide] | 1140 nM | 1510 nM | –
CC(O)c1cc(C(=O)N[C@H](C)c2c(F)cccc2F)ccc1-c1cn[nH]c1 (stereo partly drawn) [Example 293, N-[(1R)-1-(2,6-difluorophenyl)ethyl]-3-(1-hydroxyethyl)-4-(1H-pyrazol-4-yl)benzamide] | 98.2 nM | 16.2 nM | –
CC(=O)c1cc(C(=O)N[C@H](C)c2ccccc2)ccc1-c1cn[nH]c1 [Example 294, (R)-3-Acetyl-N-(1-phenylethyl)-4-(1H-pyrazol-4-yl)benzamide] | > 2000 nM | 613 nM | –
COC(=O)c1cc(C(=O)N[C@H](C)c2ccc(F)cc2)ccc1-c1cn[nH]c1 [Example 295, (R)-Methyl 5-((1-(4-fluorophenyl)ethyl)carbamoyl)-2-(1H-pyrazol-4-yl)benzoate] | 1700 nM | 563 nM | –
C[C@@H](NC(=O)c1ccc(-c2cn[nH]c2)c(N(C)C)c1)c1ccc(F)cc1 [Example 296, (R)-3-(Dimethylamino)-N-(1-(4-fluorophenyl)ethyl)-4-(1H-pyrazol-4-yl)benzamide] | 145 nM | 54.6 nM | –
CNc1cc(C(=O)N[C@H](C)c2ccc(F)cc2)ccc1-c1cn[nH]c1 [Example 297, (R)-N-(1-(4-Fluorophenyl)ethyl)-3-(methylamino)-4-(1H-pyrazol-4-yl)benzamide] | 1760 nM | 518 nM | –
COc1cc(C(=O)N(Cc2ccccc2F)CC(C)(C)O)ccc1-c1cn[nH]c1 [Example 298, N-(2-Fluorobenzyl)-N-(2-hydroxy-2-methylpropyl)-3-methoxy-4-(1H-pyrazol-4-yl)benzamide] | 839 nM | 667 nM | –
COC(=O)c1n[nH]cc1-c1ccc(C(=O)N[C@H](C)c2cccc(OC)c2)c(OC)c1 [Example 302, (R)-Methyl 4-(3-methoxy-4-((1-(3-methoxyphenyl)ethyl)carbamoyl)phenyl)-1H-pyrazole-3-carboxylate] | 70.9 nM | 69.6 nM | –
COc1cccc([C@@H](C)NC(=O)c2ccc(-c3c[nH]nc3C#N)cc2OC)c1 [Example 303, 4-(3-Cyano-1H-pyrazol-4-yl)-2-methoxy-N-[(1R)-1-(3-methoxyphenyl)ethyl]benzamide] | 30.6 nM | 21 nM | –
C[C@@H](N)[C@H]1CC[C@H](C(=O)Nc2ccncc2)CC1 [Example Y-27632] | – | – | blood pressure ([1]; control rats): only a minor effect on blood pressure; blood pressure ([1]; spontaneously hypertensive rat, renal hypertensive rat and deoxycortisone acetate salt hypertensive rat models): significantly decrease blood pressure; neointimal formation (neointimal formation): inhibited neointimal formation; ventricular hypertrophy, fibrosis and function [2]: improve ventricular hypertrophy, fibrosis and function
O=S(=O)(c1cccc2cnccc12)N1CCCNCC1 [fasudil] | – | – | coronary stenosis and coronary constrictive remodeling [3]: progressively reduce coronary stenosis, as well as promote a regression of coronary constrictive remodeling
N-(3- chlorobenzyl)- 3-methoxy-4- (1H-pyrazol-4- yl)benzamide [Example 34] | 124 nM | 49.7 nM | –
N-(4- chlorobenzyl)- 3-methoxy-4- (1H-pyrazol-4- yl)benzamide [Example 33] | 26.5 nM | 4.93 nM | –

Continued, in another order:

IC50 (ROCK1) | IC50 (ROCK2) | Molecule | also measured
133 nM | 24.5 nM | COc1cccc([C@@H](C)NC(=O)c2ccc(-c3c(C)n[nH]c3C)cc2OC)c1 [Example 304, 4-(3,5-Dimethyl-1H-pyrazol-4-yl)-2-methoxy-N-[(1R)-1-(3-methoxyphenyl)ethyl]benzamide] | –
2.15 nM | 0.65 nM | COc1cccc([C@@H](C)NC(=O)c2ccc(-c3c[nH]nc3C)cc2OC)c1 [Example 305, 4-(3-Methyl-1H-pyrazol-4-yl)-2-methoxy-N-[(1R)-1-(3-methoxyphenyl)ethyl]benzamide] | –
63.8 nM | 43.5 nM | COc1cccc([C@@H](C)NC(=O)c2ccc(-c3c[nH]nc3CO)cc2OC)c1 [Example 306, (R)-4-(3-(Hydroxymethyl)-1H-pyrazol-4-yl)-2-methoxy-N-(1-(3-methoxyphenyl)ethyl)benzamide] | –
544 nM | 205 nM | COc1cccc([C@@H](C)NC(=O)c2ccc(-c3c[nH]nc3C(C)O)cc2OC)c1 (stereo partly drawn) [Example 307, 4-(3-(1-Hydroxyethyl)-1H-pyrazol-4-yl)-2-methoxy-N-((R)-1-(3-methoxyphenyl)ethyl)benzamide] | –
284 nM | 37.5 nM | COc1cccc([C@@H](C)NC(=O)c2ccc(-c3cn[nH]c3)cc2OCCN(C)C)c1 [Example 308, 2-[2-(Dimethylamino)ethoxy]-N-[(1R)-1-(3-methoxyphenyl)ethyl]-4-(1H-pyrazol-4-yl)benzamide] | –
> 2000 nM | 771 nM | Cc1n[nH]cc1-c1cc(OCCN(C)C)c(C(=O)N[C@H](C)c2ccccc2)cc1F [Example 309, 2-[2-(dimethylamino)ethoxy]-5-fluoro-4-(3-methyl-1H-pyrazol-4-yl)-N-[(1R)-1-phenylethyl]benzamide] | –
22.3 nM | 34.8 nM | COc1cccc([C@@H](C)NC(=O)c2ccc(-c3c[nH]nc3C)cc2OCCN(C)C)c1 [Example 311, 2-[2-(dimethylamino)ethoxy]-N-[(1R)-1-(3-methoxyphenyl)ethyl]-4-(3-methyl-1H-pyrazol-4-yl)benzamide] | –
> 2000 nM | 1490 nM | COc1cc(-c2cn[nH]c2)cc(F)c1C(=O)N[C@H](C)c1ccccc1 [Example 312, 2-fluoro-6-methoxy-N-[(1R)-1-phenylethyl]-4-(1H-pyrazol-4-yl)benzamide] | –
21.1 nM | 1.6 nM | CCOc1cc(-c2cn[nH]c2)ccc1C(=O)N[C@H](C)c1cccc(OC)c1 [Example 313, 2-ethoxy-N-[(1R)-1-(3-methoxyphenyl)ethyl]-4-(1H-pyrazol-4-yl)benzamide] | –
16.8 nM | 3.37 nM | COCCOc1cc(-c2cn[nH]c2)ccc1C(=O)N[C@H](C)c1cccc(OC)c1 [Example 314, 2-(2-methoxyethoxy)-N-[(1R)-1-(3-methoxyphenyl)ethyl]-4-(1H-pyrazol-4-yl)benzamide] | –
7.19 nM | 2.31 nM | COc1cccc([C@@H](C)NC(=O)c2ccc(-c3cn[nH]c3)cc2OCCO)c1 [Example 315, 2-(2-hydroxyethoxy)-N-[(1R)-1-(3-methoxyphenyl)ethyl]-4-(1H-pyrazol-4-yl)benzamide] | –
82.2 nM | 10.9 nM | COc1ccc(F)c(C(C)NC(=O)c2ccc(-c3cn[nH]c3)c(C(C)O)c2)c1 (stereo not drawn) [Example 316, N-[1-(2-fluoro-5-methoxyphenyl)ethyl]-3-(1-hydroxyethyl)-4-(1H-pyrazol-4-yl)benzamide] | –
